Entries after “also recorded” stand apart in the source; their conditions may differ.
Columns and labels:
DO11.10 T cells = test: in vitro screen: 3H-thymidine proliferation of DO11.10 T cells co-cultured with OVA323-339-pulsed dendritic cells (non-specific toxicity screen); format: cell-based, mice; details: 5 mM and 0.1 μM; 16:1 and 64:1 ratio T:DC co-cultures
Procedure: The initial biological screen for the selected small molecule compounds was based in functional characteristics of enhancement of Th1 function and secretion of Th1 cytokines (e.g., Interferon-γ (IFN-γ)). In this process, dendritic cells (DC) were obtained by GM-CSF stimulation of bone marrow stem cells for 6 days, pulsed for 18 hours with OVA323-339 peptide to load specific antigen on these antigen presenting cells and then purified using CD11c magnetic bead separation. This population of cells is routinely >98% CD11c positive, as determined by flow cytometry. Transgenic T cells with specificity for the ovalbumin 323-339 epitope (OVA323-339) were obtained from naïve spleens of DO11.10 transgenic mice. The splenic cells were harvested and magnetic beads used to isolate the CD4 T cell population. This latter population of cells is routinely >95% CD4^+. The cells were then co-cultured in round-bottomed 96 well tissue culture plates, at varying ratios, maintaining 2×10^5 CD4^+ T cells in each well, and varying the number of dendritic cells added (See FIG. 2). […]
An initial screen was carried out with 18 compounds, using the in vitro screening process established in Example 2, above. Initially, all 18 compounds were evaluated for toxicity at 5 mM and 0.1 μM, by evaluation of proliferation of 16:1 and 64:1 ratio T:DC co-cultures. […]

[1] = system: co-cultures of DC-T cells; test: in vitro screen: IFN-γ secretion in DO11.10 T cell / OVA323-339-peptide loaded dendritic cell co-cultures; format: cell-based, mice; details: for IFN-γ enhancement at the highest concentration: 64:1 ratio, 1000 ng/ml; for IFN-γ secretion compared to control samples: initial screen, 16:1 and 64:1 T:DC co-cultures
Procedure: The initial biological screen for the selected small molecule compounds was based in functional characteristics of enhancement of Th1 function and secretion of Th1 cytokines (e.g., Interferon-γ (IFN-γ)). In this process, dendritic cells (DC) were obtained by GM-CSF stimulation of bone marrow stem cells for 6 days, pulsed for 18 hours with OVA323-339 peptide to load specific antigen on these antigen presenting cells and then purified using CD11c magnetic bead separation. This population of cells is routinely >98% CD11c positive, as determined by flow cytometry. Transgenic T cells with specificity for the ovalbumin 323-339 epitope (OVA323-339) were obtained from naïve spleens of DO11.10 transgenic mice. The splenic cells were harvested and magnetic beads used to isolate the CD4 T cell population. This latter population of cells is routinely >95% CD4^+. The cells were then co-cultured in round-bottomed 96 well tissue culture plates, at varying ratios, maintaining 2×10^5 CD4^+ T cells in each well, and varying the number of dendritic cells added (See FIG. 2).
The in vitro screen for functional activity was based on two parameters. The first parameter, ^3H-thymidine incorporation measuring proliferation of OVA323-339-peptide-specific DO11.10 T cells cultured in the presence of OVA323-339-peptide pulsed GM-CSF derived dendritic cells, should not be affected by CD154-CD40 interactions, and thus was used as a screen for non-specific toxicity of the compounds to immune cell co-cultures. The second parameter, which is controlled in the DO11.10 T cell —OVA323-339-peptide loaded dendritic cell co-cultures by CD40 ligation, is that of Interferon-γ secretion by the activated T cells.
Thus, it was hypothesized that if it was possible to enhance immune function by stabilization of CD154-CD40 ligand pair interactions through prolonged stability of CD154 homotrimers, then IFN-γ production should be increased by addition of the small molecule compounds.
An initial screen was carried out with 18 compounds, using the in vitro screening process established in Example 2, above. Initially, all 18 compounds were evaluated for toxicity at 5 mM and 0.1 μM, by evaluation of proliferation of 16:1 and 64:1 ratio T:DC co-cultures. Second, expression of IFN-γ was observed and compared to that of control samples. Of the initial 18 small molecule compounds, 5 compounds were eliminated at this early stage because they inhibited T cell proliferation and were toxic to the cells in culture. […] These two compounds, JFPH and JFPB, were selected for further study, as described below.
Small molecules in DMSO vehicle were added at various dilutions to co-cultures of DC-T cells and after four days supernatants characterized for the production of IFNγ. […]

[2] = system: syngeneic renal cell carcinoma (RCC) cells; test: sub-cutaneous renal cell carcinoma tumor model; format: in vivo, Balb/c mice; details: various concentrations, i.p. in olive oil 3x/week for 3 weeks from day 3
Procedure: (§1) In order to evaluate the efficacy of JFPH in a murine tumor model, Balb/c mice were first injected with syngeneic renal cell carcinoma (RCC) cells. The injections were delivered either sub-cutaneously or orthotopically under the kidney capsule (intra-renal). JFPH drug was diluted in olive oil to a desired concentration. Mice were injected with JFPH in olive oil intra-peritoneally 3×/week for a total of 3 weeks, beginning on day 3 post-tumor cell injection. As a vehicle control, mice were administered with only olive oil (no JFPH). For the sub-cutaneous tumor model, primary tumors were measured with calipers 3×/week and the tumor area was calculated. For the intra-renal tumor model, mice were euthanized on day 21 post tumor-cell injection and the lungs were harvested and placed in fixative. The number of lung metastases were then counted under a dissecting microscope.

[3] = system: syngeneic renal cell carcinoma (RCC) cells; test: intra-renal renal cell carcinoma tumor model, lung metastases; format: in vivo, Balb/c mice; details: 500 nmoles i.p. in olive oil 3x/week for 3 weeks
Procedure: as §1

[4] = system: experimental autoimmune encephalomyelitis (EAE); test: mouse model of experimental autoimmune encephalomyelitis (EAE), PLP139-151 peptide in CFA; format: in vivo
Procedure: Experiments were conducted to confirm that the small molecules could stabilize and therefore enhance Th1 effector function in vivo. Efficacy was tested in a mouse model of experimental autoimmune encephalomyelitis (EAE), a model of Multiple Sclerosis (MS) (See, e.g., Karlsson et al., The Journal of Immunology, 2003, 170: 1019-1026).
EAE is dependent upon CD154-CD40 interactions in the central nervous system (CNS). Initial experiments were carried out to determine the effects of these small molecules on clinical disease severity in an optimal process of induction of EAE. The compounds should not modify the severity of clinical disease over that of the vehicle control treated animals, but enhancement and prolonged Th1 responses peripherally may be observed. Second, experiments were conducted to address whether the severity and/or incidence of EAE disease could be enhanced by the small molecule therapy in mice immunized with suboptimal myelin antigenic peptide, such that the small molecules might enhance in vivo functional activity of the antigen specific Th1 cells induced in these mice, that normally would have low incidence and severity of clinical disease.
Mice were immunized with PLP139-151-peptide in CFA and treated on days 9 and 10 with 100 nmol JFPH in olive oil or vehicle alone. Clinical disease was then evaluated. Clinical severity was assessed on a 0 to 5 scale as follows: grade 1, limp tail; grade 2, limp tail and hind limb weakness (waddling gait); grade 3, partial hind limb paralysis; grade 4, complete hind limb paralysis; and grade 5, moribund. The data are plotted as the daily mean clinical score for all animals in a particular treatment group, and mean day of onset for each mouse was determined and plotted (See, FIG. 5(b)) as a box and whisker plot. When optimal EAE induction was carried out using 50 μg doses of PLP139-151 peptide, disease severity was not affected by treatment with 100 nmol JFPH on days 9 and 10 post-immunization. However, the mean day of disease onset was earlier in the JFPH treated mice compared to vehicle controls (p<0.0001) as determined by a Wilcoxon Sign-Rank test.
In experiments where suboptimal induction of EAE was induced with 25 μg doses of PLP139-151 peptide, the incidence of disease was low for vehicle treated mice (60%) compared to that of JFPH treated mice (100%). Briefly, mice were immunized with 25 μg PLP139-151-peptide in CFA and treated on days 0, 1, 8 and 9 with 100 nmol JFPH in olive oil or vehicle of olive oil alone (FIG. 6, treatment days marked by downward triangles). Clinical disease was evaluated and the cumulative mean clinical scores determined by addition of scores cumulatively with each subsequent day of evaluation (FIG. 6, right panel). The average maximum score for vehicle treated mice was 1.2 (due in part to one individual mouse) versus 1.8 for JFPH treated mice, and in both mean day of onset and mean day of peak disease severity, the JFPH treated mice reached these time points an average of 3 days earlier than that of vehicle treated mice.

[5] = suboptimal EAE induction, 25 μg PLP139-151
[6] = suboptimal EAE induction, 25 μg PLP139-151, 100 nmol days 0, 1, 8 and 9

| Compound | T cell proliferation (DO11.10 T cells) | IFN-γ enhancement at the highest concentration [1] | IFN-γ secretion compared to control samples [1] | sub-cutaneous renal cancer tumor growth (tumor area) versus control mice [2] | renal cancer metastasis (number of lung metastases, day 21) versus control mice [3] | disease onset ([4]; EAE induced under suboptimal conditions) | mean day of onset ([4]; optimal EAE induction, 50 μg PLP139-151, 100 nmol days 9 and 10, ± standard deviation) [days] | disease severity (clinical score 0 to 5) ([4]; optimal EAE induction, 50 μg PLP139-151, 100 nmol in olive oil days 9 and 10) | disease onset compared to vehicle controls ([4]; optimal EAE induction, 100 nmol days 9 and 10) | disease course longer than vehicle control [4, 5] [days] | mean day of onset, earlier than vehicle treated mice [4, 5] [days] | mean day of peak disease severity, earlier than vehicle treated mice [4, 5] [days] | average maximum score [4, 6] | incidence of disease [4, 6] [%] | mean day of remission versus vehicle ([4]; suboptimal EAE induction, remission = reduction of one full score for two days) |
| --- | --- | --- | --- | --- | --- | --- | --- | --- | --- | --- | --- | --- | --- | --- | --- |
| CCOC(=O)NC(=O)c1cn(CCNc2ncc(C(F)(F)F)cc2Cl)c(=O)[nH]c1=O [JFPB, ethyl N-[[1-(2-[[3-chloro-5-(trifluoromethyl)-2-pyridinyl]amino]ethyl)-2,4-dioxo-1,2,3,4-tetrahydro-5-pyrimidinyl]carbonyl]carbamate] | no effect | reduced IFN-γ enhancement | consistently enhanced IFN-γ secretion |  |  |  |  |  |  |  |  |  |  |  |  |
| FC(F)(F)c1cc(N2CCCCCCC2)c2c(Cl)cc(Cl)cc2n1 [JFPH, 4-azocan-1-YL-5,7-dichloro-2-(trifluoromethyl)quinoline] | no effect | enhancement was observed | consistently enhanced IFN-γ secretion | delays sub-cutaneous growth of renal cancer; also recorded: delayed renal cancer tumor growth | reduces renal cancer metastasis; also recorded: significant reduction of renal cancer metastasis | accelerated disease onset | 15.47 ± 1.68 | not affected | accelerated disease onset; also recorded: earlier | 3 | 3 | 3 | 1.8 | 100 | no difference |

Source: patent US7601355B2, “Compositions and methods for altering immune function” (Northwestern University, priority 2005, dated 2009)
